Laboratory results published in patent US8486996B2, “Aroylfuranes and aroylthiophenes” (Basilea Pharmaceutica AG, priority 2006, dated 2013).
Like-named read-outs stand apart in the source and are kept apart here.

Assays:
[1] = Hoechst 33342 nuclear staining (48 h read-out); assay type: cell-based
Outline: (§1)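 Adherent cells pre-spread 24 h before dosing, suspension cells dosed at seeding; compounds at 0.001 μM-10 μM final, 48 h at culture conditions. Hoechst 33342 (2-5 μg/ml) added for 30 min, then fluorescence microscopy scoring of apoptotic nuclear fraction and apoptosis-specific morphology, reported as scores A-D.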

[2] = test system: tumor cells; experiment: Hoechst 33342 nuclear staining (48 h read-out); assay type: cell-based
Outline: as §1

[3] = MTS proliferation assay (72 h read-out); assay type: cell-based; conditions: MRC5 cells
Outline: (§2)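 Tumour cells (1.5×10^3–10^4 per well) were seeded 24 h before compound addition, then exposed to 0.001–10 μM final compound for 72 h under culture conditions. MTS reagent was added for a further 3 h, absorbance was read at 492 nm, and results were binned into scores A–D.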

[4] = test system: tumor cells; experiment: MTS proliferation assay (72 h read-out); assay type: cell-based
Outline: as §2

[5] = Mitochondrial membrane potential, JC-1 (read-out 48 h); assay type: cell-based; conditions: PBL, JC-1, 48 h
Outline: (§3)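 Tumor cells were treated with test compounds (adherent cells after 24 h of attachment, suspension cells immediately), medium holding up to 5% DMSO. After 48 h, JC-1 (2-5 μg/ml in added medium) was applied for 30 min. Fluorescence microscopy (FITC/TRITC filters) scored the fraction of cells with dissipated mitochondrial membrane potential as categories A-D.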

[6] = test system: tumor cells; experiment: as above; assay type: cell-based; conditions: JC-1, 48 h
Outline: as §3

[7] = test system: HeLa; experiment: Colony Forming Units (read-out 6 days), HeLa; assay type: cell-based, human; conditions: colonies containing more than 30 cells, read-out: Colony Forming Units, score based on IC50, HeLa
Protocol: (§4) Appropriate numbers of cells (100-150 cells, dependent on the cell type) are being seeded out in 1 ml complete medium into 6-well plates and allowed to attach for 48 h. The compounds are added after 48 h in 500 μl solution. The concentrations are in the range of 0.001 μM-3 μM. Control plates receive the same volume of medium containing the appropriate amount of DMSO. The plates are incubated for 5-7 days at cell culture conditions and subsequently scored for growth of colonies (containing more than 30 cells) by using a microscope.

[8] = test system: H460; experiment: Colony Forming Units (read-out 6 days), H460; assay type: cell-based, human; conditions: colonies containing more than 30 cells, read-out: Colony Forming Units, score based on IC50, H460
Protocol: as §4

[9] = Homo sapiens, MRC5 cells, read-out: Hoechst 33342 nuclear staining EC50, MRC5
[10] = PBL, read-out: Hoechst 33342 nuclear staining EC50, PBL
[11] = Homo sapiens, HeLa cells, read-out: Hoechst 33342 nuclear staining EC50, HeLa
[12] = Homo sapiens, Jurkat cells, read-out: Hoechst 33342 nuclear staining EC50, Jurkat
[13] = Jily cells, read-out: Hoechst 33342 nuclear staining EC50, Jily
[14] = Homo sapiens, HT-1080, HT1080 cells, read-out: MTS proliferation assay IC50, HT1080
[15] = Homo sapiens, HeLa cells, read-out: MTS proliferation assay IC50, HeLa
[16] = Jily cells, read-out: MTS proliferation assay IC50, Jily
[17] = Homo sapiens, HeLa cells, read-out: Mitochondrial membrane potential (read-out 48 h) HeLa
[18] = Homo sapiens, Jurkat cells, read-out: Mitochondrial membrane potential (read-out 48 h) Jurkat
[19] = Homo sapiens, MCF7 cells, read-out: Mitochondrial membrane potential (read-out 48 h) MCF7
[20] = Jily cells, read-out: Mitochondrial membrane potential (read-out 48 h) Jily
[21] = MRC5 cells, read-out: Hoechst 33342 nuclear staining EC50, MRC5
[22] = HeLa cells, read-out: Hoechst 33342 nuclear staining EC50, HeLa
[23] = Jurkat cells, read-out: Hoechst 33342 nuclear staining EC50, Jurkat
[24] = HT1080 cells, read-out: MTS proliferation assay IC50, HT1080
[25] = HeLa cells, read-out: MTS proliferation assay IC50, HeLa
[26] = Jurkat cells, read-out: MTS proliferation assay IC50, Jurkat
[27] = HeLa cells, read-out: Mitochondrial membrane potential (read-out 48 h) HeLa
[28] = Jurkat cells, read-out: Mitochondrial membrane potential (read-out 48 h) Jurkat
[29] = MCF7 cells, read-out: Mitochondrial membrane potential (read-out 48 h) MCF7

Structure (SMILES)	EC50 [1, 10]	EC50 [2, 13]	IC50 [4, 16]	EC50 [5]	EC50 [6, 20]	EC50 [1, 21]	EC50 [2, 22]	EC50 [2, 23]	IC50 [3]	IC50 [4, 24]	IC50 [4, 25]	IC50 [4, 26]	EC50 [6, 27]	EC50 [6, 28]	EC50 [6, 29]	IC50 [7]	IC50 [8]	other results
CCOc1ccc(N)cc1C(=O)c1oc2ccc(Cl)cc2c1N [Example 7]	> 1000 nM	100 to 1000 nM	100 to 1000 nM	> 1000 nM	100 to 1000 nM													EC50 [1, 9]: > 1000 nM; EC50 [2, 11]: 100 to 1000 nM; EC50 [2, 12]: 100 to 1000 nM; IC50 ([3]; Homo sapiens): > 1000 nM; IC50 [4, 14]: 100 to 1000 nM; IC50 [4, 15]: 100 to 1000 nM; EC50 [6, 17]: 100 to 1000 nM; EC50 [6, 18]: 100 to 1000 nM; EC50 [6, 19]: > 1000 nM; melting point: 144 to 146 °C
CCOc1ccc(C(=O)OC)cc1C(=O)c1oc2ccc(Cl)cc2c1N [Example 20]	> 1000 nM	10 to 100 nM	10 to 100 nM	> 1000 nM	10 to 100 nM													EC50 [1, 9]: > 1000 nM; EC50 [2, 11]: 100 to 1000 nM; EC50 [2, 12]: 10 to 100 nM; IC50 [4, 14]: 10 to 100 nM; IC50 [4, 15]: 100 to 1000 nM; IC50 ([4]; Homo sapiens, Jurkat cells, read-out: MTS proliferation assay IC50, Jurkat): 10 to 100 nM; EC50 [6, 17]: 100 to 1000 nM; EC50 [6, 18]: 10 to 100 nM; EC50 [6, 19]: 100 to 1000 nM; melting point: 136 to 138 °C
CCOc1ccc(F)cc1C(=O)c1oc2ccc(OC)cc2c1N [Example 48]	> 1000 nM	< 10 nM	< 10 nM	100 to 1000 nM	< 10 nM	< 10 nM	< 10 nM	< 10 nM	< 10 nM	< 10 nM	< 10 nM	< 10 nM	10 to 100 nM	< 10 nM	10 to 100 nM	10 to 100 nM	< 10 nM	
CCOc1ccccc1C(=O)c1cc2cc(OC)ccc2o1 [Example 53]	> 1000 nM	10 to 100 nM	< 10 nM	> 1000 nM	10 to 100 nM	100 to 1000 nM	10 to 100 nM	< 10 nM	< 10 nM	< 10 nM	< 10 nM		10 to 100 nM	10 to 100 nM	10 to 100 nM	10 to 100 nM	10 to 100 nM	
CCOc1ccc(F)cc1C(=O)c1oc2ccc(OC)cc2c1NC(=O)COC [Example 58]	> 1000 nM	10 to 100 nM	10 to 100 nM	> 1000 nM	10 to 100 nM	> 1000 nM	100 to 1000 nM	10 to 100 nM	10 to 100 nM	10 to 100 nM	10 to 100 nM	< 10 nM	100 to 1000 nM	10 to 100 nM	100 to 1000 nM	10 to 100 nM	10 to 100 nM	
Nc1c(C(=O)c2ccccc2OCC(F)(F)F)oc2ccc(Cl)cc12 [Example 61]	> 1000 nM	10 to 100 nM	< 10 nM	> 1000 nM	10 to 100 nM	> 1000 nM	100 to 1000 nM	< 10 nM	10 to 100 nM	10 to 100 nM	10 to 100 nM	< 10 nM	100 to 1000 nM	10 to 100 nM	> 1000 nM	10 to 100 nM	10 to 100 nM	
CCOc1ccc(F)cc1C(=O)c1cc2cc(O)ccc2o1 [Example 64]	> 1000 nM	10 to 100 nM	< 10 nM	> 1000 nM	10 to 100 nM	100 to 1000 nM	10 to 100 nM	< 10 nM	10 to 100 nM	10 to 100 nM	10 to 100 nM	< 10 nM	10 to 100 nM	< 10 nM	> 1000 nM	10 to 100 nM	10 to 100 nM	
CCOc1ccc2oc(C(=O)c3cc(F)ccc3OCC)cc2c1 [Example 66]	> 1000 nM	< 10 nM	< 10 nM	> 1000 nM	10 to 100 nM	100 to 1000 nM	10 to 100 nM	10 to 100 nM	< 10 nM	< 10 nM	< 10 nM		100 to 1000 nM	10 to 100 nM	100 to 1000 nM	< 10 nM	< 10 nM	
CCOc1ccc(F)cc1C(=O)c1oc2ccc(O)cc2c1N [Example 75]	> 1000 nM	< 10 nM	< 10 nM	> 1000 nM	< 10 nM	< 10 nM	< 10 nM	< 10 nM	< 10 nM	< 10 nM	10 to 100 nM	< 10 nM	< 10 nM	< 10 nM	10 to 100 nM	10 to 100 nM	10 to 100 nM	
CCOc1ncccc1C(=O)c1oc2ccc(Cl)cc2c1N [Example 78]	> 1000 nM	10 to 100 nM	< 10 nM	> 1000 nM	10 to 100 nM	> 1000 nM	10 to 100 nM	< 10 nM	< 10 nM	< 10 nM	10 to 100 nM	< 10 nM	10 to 100 nM	< 10 nM	100 to 1000 nM	10 to 100 nM	10 to 100 nM	
CCN(C)c1ncccc1C(=O)c1oc2ccc(Cl)cc2c1N [Example 80]	> 1000 nM	100 to 1000 nM	10 to 100 nM	> 1000 nM	100 to 1000 nM	> 1000 nM	100 to 1000 nM	100 to 1000 nM	100 to 1000 nM	100 to 1000 nM	100 to 1000 nM	10 to 100 nM	100 to 1000 nM	10 to 100 nM	> 1000 nM	100 to 1000 nM	100 to 1000 nM	
Nc1c(C(=O)c2cccnc2N2CCCCC2)oc2ccc(Cl)cc12 [Example 82]	> 1000 nM	10 to 100 nM	< 10 nM	> 1000 nM	< 10 nM	10 to 100 nM	10 to 100 nM	< 10 nM	< 10 nM	< 10 nM	< 10 nM	< 10 nM	10 to 100 nM	< 10 nM	10 to 100 nM	10 to 100 nM	10 to 100 nM	
COc1ccc2oc(C(=O)c3cc(F)ccc3N3CC=CCC3)cc2c1 [Example 98]	> 1000 nM	10 to 100 nM	10 to 100 nM	> 1000 nM	< 10 nM	10 to 100 nM	10 to 100 nM	< 10 nM	< 10 nM	10 to 100 nM	10 to 100 nM	< 10 nM	< 10 nM	< 10 nM	< 10 nM	10 to 100 nM	10 to 100 nM	
CCOc1ccccc1C(=O)COc1nc(C)ccc1C#N [Example 145]	> 1000 nM	100 to 1000 nM		> 1000 nM														EC50 [1, 9]: > 1000 nM; EC50 [2, 11]: > 1000 nM; EC50 [2, 12]: 100 to 1000 nM; EC50 [6, 17]: > 1000 nM; EC50 [6, 18]: 100 to 1000 nM; EC50 [6, 19]: 100 to 1000 nM; melting point: 156 to 158 °C
CCOc1ccc(Cl)cc1C(=O)COc1nc(C)ccc1C#N [Example 146]	> 1000 nM	100 to 1000 nM		> 1000 nM														EC50 [1, 9]: 100 to 1000 nM; EC50 [2, 11]: 100 to 1000 nM; EC50 [2, 12]: 10 to 100 nM; EC50 [6, 17]: 100 to 1000 nM; EC50 [6, 18]: 10 to 100 nM; EC50 [6, 19]: 100 to 1000 nM; melting point: 138 to 140 °C
